Test results: patent publication US5298494A, “Monosaccharides having anti-proliferation and anti-inflammatory activity, compositions and uses thereof” (Greenwich Pharmaceuticals Incorporated, priority 1993, dated 1994)
Read-outs that look alike come from different tables or passages of the source.

Key:
[1] = test system: T lymphocytes (normal mouse spleen cells) stimulated with ConA; assay: Mouse Spleen Cell ConA Blastogenesis Assay; assay type: cell-based, mouse (C57Bl/6); conditions: for inhibition at 0.001 µg/mL / inhibition at 0.01 µg/mL / inhibition at 0.1 µg/mL / inhibition at 1 µg/mL / inhibition at 2.5 µg/mL / inhibition at 10 µg/mL / inhibition at 25 µg/mL / inhibition at 100 µg/mL: Mus musculus, T-lymphocyte
[2] = test system: Interleukin 1 (IL-1) production by peritoneal macrophages; assay: IL-1 Assay: production of interleukin-1 by peritoneal macrophages (thymocyte bioassay); assay type: cell-based, mouse (C57B1/6); set-up: inhibition: dose or concentration left out as unconfirmed; conditions: for inhibition at 0.001 µg/mL / inhibition at 0.01 µg/mL / inhibition at 0.1 µg/mL / inhibition at 2.5 µg/mL / inhibition at 10 µg/mL / inhibition at 25 µg/mL / inhibition at 100 µg/mL / inhibition: Mus musculus, Peritoneal macrophage, read-out: % effect on IL-1 production (thymidine uptake by thymocytes)
Source text: Interleukin 1 (IL-1) is a potent immunomodulatory cytokine that has a broad range of pro-inflammatory activities. IL-1 is known to be produced by activated accessory cells such as macrophages. Accessory cell production of IL-1 results in the activation and proliferation of T and B lymphocytes. Therefore, by inhibiting macrophage activation and production of IL-1, the activation and proliferation of the cellular effectors of inflammation can be modulated. Compounds of the invention were screened for inhibitory activity in a classical IL-1 assay. Six to 8 week old male C57B1/6 mice were purchased from Harlan Sprague Dawley. Peritoneal macrophages were elicited by the administration to mice of a single intraperitoneal injection of 0.2 ml of complete Freund's adjuvant. After 48 hours, elicited macrophages were removed from the mice by lavage with the use of Hank's balanced salt solution. […] To the macrophage cultures were added various doses of the compounds of the invention and 10 ug/ml of the macrophage activator lipopolysaccharide (to stimulate IL-1 production). Control cultures consisted of macrophages, lipopolysaccharide and culture medium containing various doses of DMSO only. […] The amount of IL-1 produced in the individual wells was determined in a bioassay for IL-1. This involved the removal of thymuses from mice less than 8 weeks of age. Thymocytes were isolated by passing each thymus through a stainless steel mesh screen. […] After 18 hours cells were harvested and radioactive incorporation (as a measure of cell proliferation) was quantitated in a liquid scintillation counter. The students t test was used to determine the significance of the difference between experimental and control values.

[3] = ConA 1 ug/ml, compound 0.01 ug/ml, read-out: % change from control, ConA blastogenic response
[4] = ConA 1 ug/ml, compound 0.1 ug/ml, read-out: % change from control, ConA blastogenic response
[5] = ConA 1 ug/ml, compound 1 ug/ml, read-out: % change from control, ConA blastogenic response
[6] = ConA 1 ug/ml, compound 2.5 ug/ml, read-out: % change from control, ConA blastogenic response
[7] = ConA 1 ug/ml, compound 10 ug/ml, read-out: % change from control, ConA blastogenic response
[8] = ConA 1 ug/ml, compound 25 ug/ml, read-out: % change from control, ConA blastogenic response
[9] = ConA 1 ug/ml, compound 100 ug/ml, read-out: % change from control, ConA blastogenic response
[10] = ConA 4 ug/ml, compound 0.01 ug/ml, read-out: % change from control, ConA blastogenic response
[11] = ConA 4 ug/ml, compound 0.1 ug/ml, read-out: % change from control, ConA blastogenic response
[12] = ConA 4 ug/ml, compound 1 ug/ml, read-out: % change from control, ConA blastogenic response
[13] = ConA 4 ug/ml, compound 2.5 ug/ml, read-out: % change from control, ConA blastogenic response
[14] = ConA 4 ug/ml, compound 10 ug/ml, read-out: % change from control, ConA blastogenic response
[15] = ConA 4 ug/ml, compound 25 ug/ml, read-out: % change from control, ConA blastogenic response
[16] = ConA 4 ug/ml, compound 100 ug/ml, read-out: % change from control, ConA blastogenic response

Q: Which “effect on ConA T lymphocyte proliferation in words” value [1] does the source give for `CCCCCCCOC[C@H]1O[C@@]2(OC)COC(C)(C)O[C@H]2[C@@H]1O` [Ia, methyl 1,3-O-isopropylidene-6-O-heptyl-α-D-fructofuranoside] here?
A: dose-dependent, significant, inhibitory effect

Q: And the “Blastogenic response of normal spleen cells to Con-A” value (from here on “Blastogenic response”) ([1]; ConA 1 ug/ml, compound 0.001 ug/ml)?
A: 52.6 ± 3.8 × 10^-3 cpm

Q: What about the “Blastogenic response” value ([1]; ConA 1 ug/ml, compound 0.01 ug/ml) of the same compound?
A: 45.1 ± 4.9 × 10^-3 cpm

Q: And the “Blastogenic response” value ([1]; ConA 1 ug/ml, compound 0.1 ug/ml)?
A: 71.1 ± 4.9 × 10^-3 cpm

Q: What about the “Blastogenic response” value ([1]; ConA 1 ug/ml, compound 1 ug/ml) of the same compound?
A: 55.7 ± 8.4 × 10^-3 cpm

Q: What about the “Blastogenic response” value ([1]; ConA 1 ug/ml, compound 2.5 ug/ml) of the same compound?
A: 47.2 ± 7.0 × 10^-3 cpm

Q: What about the “Blastogenic response” value ([1]; ConA 1 ug/ml, compound 10 ug/ml) of the same compound?
A: 26.5 ± 8.8 × 10^-3 cpm

Q: What about the “Blastogenic response” value ([1]; ConA 1 ug/ml, compound 25 ug/ml) of the same compound?
A: 1.5 ± 0.4 × 10^-3 cpm

Q: What about the “Blastogenic response” value ([1]; ConA 1 ug/ml, compound 100 ug/ml) of the same compound?
A: 0.6 ± 0.1 × 10^-3 cpm

Q: And the “Blastogenic response” value ([1]; ConA 4 ug/ml, compound 0.001 ug/ml)?
A: 68.7 ± 5.0 × 10^-3 cpm

Q: And the “Blastogenic response” value ([1]; ConA 4 ug/ml, compound 0.01 ug/ml)?
A: 72.8 ± 0.8 × 10^-3 cpm

Q: What about the “Blastogenic response” value ([1]; ConA 4 ug/ml, compound 0.1 ug/ml) of the same compound?
A: 88.8 ± 2.4 × 10^-3 cpm

Q: What about the “Blastogenic response” value ([1]; ConA 4 ug/ml, compound 1 ug/ml) of the same compound?
A: 77.0 ± 4.2 × 10^-3 cpm

Q: And the “Blastogenic response” value ([1]; ConA 4 ug/ml, compound 2.5 ug/ml)?
A: 63.8 ± 2.3 × 10^-3 cpm

Q: What about the “Blastogenic response” value ([1]; ConA 4 ug/ml, compound 10 ug/ml) of the same compound?
A: 50.2 ± 3.4 × 10^-3 cpm

Q: What about the “Blastogenic response” value ([1]; ConA 4 ug/ml, compound 25 ug/ml) of the same compound?
A: 13.7 ± 2.0 × 10^-3 cpm

Q: What about the “Blastogenic response” value ([1]; ConA 4 ug/ml, compound 100 ug/ml) of the same compound?
A: 6.3 ± 2.2 × 10^-3 cpm

Q: What about the inhibition at 0.001 µg/mL ([1]; ConA 1 ug/ml, compound 0.001 ug/ml, read-out: % change from control, ConA blastogenic response) of the same compound?
A: 5%

Q: And the inhibition at 0.01 µg/mL [1, 3]?
A: 19%

Q: And the inhibition at 0.1 µg/mL [1, 4]?
A: -28%

Q: What about the inhibition at 1 µg/mL [1, 5] of the same compound?
A: -1%

Q: And the inhibition at 2.5 µg/mL [1, 6]?
A: 15%

Q: What about the inhibition at 10 µg/mL [1, 7] of the same compound?
A: 52%

Q: What about the inhibition at 25 µg/mL [1, 8] of the same compound?
A: 97%

Q: And the inhibition at 100 µg/mL [1, 9]?
A: 99%

Q: And the inhibition at 0.001 µg/mL ([1]; ConA 4 ug/ml, compound 0.001 ug/ml, read-out: % change from control, ConA blastogenic response)?
A: 19%

Q: What about the inhibition at 0.01 µg/mL [1, 10] of the same compound?
A: 14%

Q: And the inhibition at 0.1 µg/mL [1, 11]?
A: -5%

Q: And the inhibition at 1 µg/mL [1, 12]?
A: 9%

Q: What about the inhibition at 2.5 µg/mL [1, 13] of the same compound?
A: 25%

Q: What about the inhibition at 10 µg/mL [1, 14] of the same compound?
A: 41%

Q: And the inhibition at 25 µg/mL [1, 15]?
A: 84%

Q: And the inhibition at 100 µg/mL [1, 16]?
A: 93%

Q: And the “^3 H-Thymidine uptake by thymocytes” value ([2]; 0.001 ug/ml)?
A: 10,550 cpm

Q: What about the “^3 H-Thymidine uptake by thymocytes” value ([2]; 0.01 ug/ml) of the same compound?
A: 10,960 cpm

Q: What about the “^3 H-Thymidine uptake by thymocytes” value ([2]; 0.1 ug/ml) of the same compound?
A: 10,265 ± 227 cpm

Q: And the “^3 H-Thymidine uptake by thymocytes” value ([2]; 1 ug/ml)?
A: 10,777 ± 1,903 cpm

Q: And the “^3 H-Thymidine uptake by thymocytes” value ([2]; 2.5 ug/ml)?
A: 8,250 ± 705 cpm

Q: What about the “^3 H-Thymidine uptake by thymocytes” value ([2]; 10 ug/ml) of the same compound?
A: 4,970 ± 410 cpm

Q: What about the “^3 H-Thymidine uptake by thymocytes” value ([2]; 25 ug/ml) of the same compound?
A: 3,210 ± 149 cpm

Q: What about the “^3 H-Thymidine uptake by thymocytes” value ([2]; 100 ug/ml) of the same compound?
A: 2,215 ± 643 cpm

Q: What about the inhibition at 0.001 µg/mL ([2]; 0.001 ug/ml) of the same compound?
A: 3%

Q: What about the inhibition at 0.01 µg/mL ([2]; 0.01 ug/ml) of the same compound?
A: -1%

Q: And the inhibition at 0.1 µg/mL ([2]; 0.1 ug/ml)?
A: 8%

Q: And the inhibition at 2.5 µg/mL ([2]; 2.5 ug/ml)?
A: 28%

Q: And the inhibition at 10 µg/mL ([2]; 10 ug/ml)?
A: 51%

Q: And the inhibition at 25 µg/mL ([2]; 25 ug/ml)?
A: 63%

Q: What about the inhibition at 100 µg/mL ([2]; 100 ug/ml) of the same compound?
A: 75%

Q: And the inhibition [2]?
A: 2%

Q: What does the source list for `CCCCC/C=C/COC[C@H]1O[C@@]2(OC)COC(C)(C)O[C@H]2[C@@H]1OC/C=C/CCCCC` [Ie, methyl 1,3-O-isopropylidene-4,6-di-O-(trans,2-octenyl)-α-D-fructofuranoside]?
A: inhibition at 0.01 µg/mL ([1]; ConA 1 ug/ml, 0.01 ug/ml, read-out: % Change from Control (Table II)): 2%; inhibition at 0.01 µg/mL [1, 3]: 22%; inhibition at 0.1 µg/mL [1, 4]: 18%; inhibition at 1 µg/mL [1, 5]: 34%; inhibition at 2.5 µg/mL [1, 6]: 72%; inhibition at 10 µg/mL [1, 7]: 91%; inhibition at 25 µg/mL [1, 8]: 99%; inhibition at 100 µg/mL [1, 9]: 100%; inhibition at 0.01 µg/mL ([1]; ConA 4 ug/ml, 0.01 ug/ml, read-out: % Change from Control (Table II)): 8%; inhibition at 0.01 µg/mL [1, 10]: 4%; inhibition at 0.1 µg/mL [1, 11]: 9%; inhibition at 1 µg/mL [1, 12]: 59%; inhibition at 2.5 µg/mL [1, 13]: 79%; inhibition at 10 µg/mL [1, 14]: 92%; inhibition at 25 µg/mL [1, 15]: 99%; inhibition at 100 µg/mL [1, 16]: 100%; ^3 H-Thymidine uptake by thymocytes ([2]; 0.001 ug/ml): 12,713 ± 866 cpm; ^3 H-Thymidine uptake by thymocytes ([2]; 0.01 ug/ml): 12,040 cpm; ^3 H-Thymidine uptake by thymocytes ([2]; 0.1 ug/ml): 11,047 ± 702 cpm; ^3 H-Thymidine uptake by thymocytes ([2]; 1 ug/ml): 9,710 ± 1,323 cpm; ^3 H-Thymidine uptake by thymocytes ([2]; 2.5 ug/ml): 7,000 ± 686 cpm; ^3 H-Thymidine uptake by thymocytes ([2]; 10 ug/ml): 6,100 ± 775 cpm; ^3 H-Thymidine uptake by thymocytes ([2]; 25 ug/ml): 5,300 ± 1,405 cpm; ^3 H-Thymidine uptake by thymocytes ([2]; 100 ug/ml): 4,300 ± 1,100 cpm; inhibition at 0.001 µg/mL ([2]; 0.001 ug/ml): -17%; inhibition at 0.01 µg/mL ([2]; 0.01 ug/ml): -11%; inhibition at 0.1 µg/mL ([2]; 0.1 ug/ml): 1%; inhibition at 2.5 µg/mL ([2]; 2.5 ug/ml): 30%; inhibition at 10 µg/mL ([2]; 10 ug/ml): 40%; inhibition at 25 µg/mL ([2]; 25 ug/ml): 40%; inhibition at 100 µg/mL ([2]; 100 ug/ml): 51%; inhibition [2]: 12%
